According to ChEMBL document CHEMBL1136561, “Thiophene-based vitronectin receptor antagonists” (Bioorg Med Chem Lett, 2003):

What was measured:
Integrin alpha-V/beta-3 [1] = target: T1, Integrin alpha-V/beta-3 (Homo sapiens, UniProt P05106+P06756); test: Inhibition of fibrinogen binding to integrin alphaV-beta3 receptor; assay type: protein-complex assay
[2] = target: Integrin alpha-V/beta-3 and alpha-IIb/beta 3 (Homo sapiens) (UniProt P05106+P06756+P08514); test: Selectivity ratio for alphaIIb-beta3 over alphaV-beta3 integrins; assay type: protein assay
Gallus gallus [3] = species on record: Gallus gallus; test: Inhibition of VEGF-mediated angiogenesis in the chick CAM assay expressed as capillary formation at 33 ug/mesh conc.; assay type: functional
Homo sapiens = species on record: Homo sapiens; test: Selectivity ratio for alphaV-beta5 over alphaV-beta3 integrins
Gallus gallus [4] = species on record: Gallus gallus; test: Inhibition of VEGF-mediated angiogenesis in the chick CAM assay expressed as capillary formation at 17 ug/mesh conc.; assay type: functional
[5] = target: Integrin alpha-IIb/beta-3 (Homo sapiens, UniProt P05106+P08514); test: Inhibition of fibrinogen binding to integrin alphaIIb-beta3; assay type: protein-complex assay
Gallus gallus [6] = species on record: Gallus gallus; test: Inhibition of VEGF-mediated angiogenesis in the chick CAM assay expressed as capillary formation at 3 ug/mesh conc.; assay type: functional
Integrin alpha-V/beta-3 [7] = target: T1, Integrin alpha-V/beta-3; test: Inhibition of fibrinogen binding to K562 cells expressing integrin alphaV-beta3; assay type: cell-based
[8] = target: Fibronectin receptor (Integrin alpha-5/beta-1 and alpha-V/beta-3) (Homo sapiens) (UniProt P05106+P05556+P06756+P08648); test: Selectivity ratio for alpha5-beta1 and alphaV-beta3 integrins; assay type: protein-complex assay
Integrin alpha-V/beta-5 = Integrin alpha-V/beta-5 (Homo sapiens, UniProt P06756+P18084); test: Inhibition of vitronectin binding to HT-29 cells expressing integrin alphaV-beta5; assay type: cell-based
Integrin alpha-5/beta-1 = Integrin alpha-5/beta-1 (Homo sapiens, UniProt P05556+P08648); test: Inhibition of fibronectin binding to K562 cells expressing integrin alpha5-beta1
Integrin alpha-5/beta-1, sequence (P05556 21-798 limits assumed): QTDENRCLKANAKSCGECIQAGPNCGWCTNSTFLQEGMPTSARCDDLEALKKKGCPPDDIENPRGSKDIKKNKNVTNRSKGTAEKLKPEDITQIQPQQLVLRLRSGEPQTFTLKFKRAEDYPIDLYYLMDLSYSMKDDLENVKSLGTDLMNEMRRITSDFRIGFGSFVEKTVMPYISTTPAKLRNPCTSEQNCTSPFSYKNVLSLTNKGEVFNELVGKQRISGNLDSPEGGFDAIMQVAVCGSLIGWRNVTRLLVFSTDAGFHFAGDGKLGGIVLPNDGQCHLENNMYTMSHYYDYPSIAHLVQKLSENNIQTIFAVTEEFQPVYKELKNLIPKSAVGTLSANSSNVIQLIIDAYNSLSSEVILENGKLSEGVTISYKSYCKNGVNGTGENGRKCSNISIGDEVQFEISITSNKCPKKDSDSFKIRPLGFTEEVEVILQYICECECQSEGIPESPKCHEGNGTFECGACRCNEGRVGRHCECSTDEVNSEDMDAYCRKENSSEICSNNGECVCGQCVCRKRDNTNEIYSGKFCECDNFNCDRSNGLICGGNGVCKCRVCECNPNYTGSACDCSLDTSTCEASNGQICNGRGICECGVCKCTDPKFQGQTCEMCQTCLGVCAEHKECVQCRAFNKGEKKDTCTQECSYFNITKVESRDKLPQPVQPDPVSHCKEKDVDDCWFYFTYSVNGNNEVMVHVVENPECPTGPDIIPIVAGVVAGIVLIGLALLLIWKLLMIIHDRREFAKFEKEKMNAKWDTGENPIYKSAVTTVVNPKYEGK
Integrin alpha-5/beta-1, sequence (P08648 42-894 limits assumed): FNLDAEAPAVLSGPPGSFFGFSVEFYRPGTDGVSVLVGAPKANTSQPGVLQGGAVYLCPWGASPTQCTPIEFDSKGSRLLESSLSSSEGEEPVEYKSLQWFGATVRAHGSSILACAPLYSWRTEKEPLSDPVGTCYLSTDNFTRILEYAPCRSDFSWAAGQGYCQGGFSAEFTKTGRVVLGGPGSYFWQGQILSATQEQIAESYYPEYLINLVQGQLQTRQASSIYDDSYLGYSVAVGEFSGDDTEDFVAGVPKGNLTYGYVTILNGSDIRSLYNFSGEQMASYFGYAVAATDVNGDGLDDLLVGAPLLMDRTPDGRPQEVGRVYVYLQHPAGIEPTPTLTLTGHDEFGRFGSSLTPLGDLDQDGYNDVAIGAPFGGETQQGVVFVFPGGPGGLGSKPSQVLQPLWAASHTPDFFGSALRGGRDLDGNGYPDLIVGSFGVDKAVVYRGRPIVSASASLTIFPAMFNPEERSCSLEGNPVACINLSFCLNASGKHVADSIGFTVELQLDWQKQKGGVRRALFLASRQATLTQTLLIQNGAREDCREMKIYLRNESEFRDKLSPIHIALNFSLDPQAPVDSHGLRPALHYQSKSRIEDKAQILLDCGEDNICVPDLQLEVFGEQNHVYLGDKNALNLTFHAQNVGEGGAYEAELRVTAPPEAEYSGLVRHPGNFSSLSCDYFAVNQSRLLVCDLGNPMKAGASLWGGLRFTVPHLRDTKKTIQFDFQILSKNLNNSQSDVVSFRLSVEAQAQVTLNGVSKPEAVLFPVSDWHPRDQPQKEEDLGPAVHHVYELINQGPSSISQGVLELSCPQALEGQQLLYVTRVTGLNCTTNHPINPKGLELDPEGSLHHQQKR
Integrin alpha-5/beta-1, sequence (P08648 895-1049 limits assumed): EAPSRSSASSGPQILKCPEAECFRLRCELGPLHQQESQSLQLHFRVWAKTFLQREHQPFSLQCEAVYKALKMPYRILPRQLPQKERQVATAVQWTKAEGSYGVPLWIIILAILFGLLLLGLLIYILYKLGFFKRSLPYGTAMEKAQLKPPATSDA

Integrin alpha-IIb/beta-3, sequence (P05106 27-788 limits assumed): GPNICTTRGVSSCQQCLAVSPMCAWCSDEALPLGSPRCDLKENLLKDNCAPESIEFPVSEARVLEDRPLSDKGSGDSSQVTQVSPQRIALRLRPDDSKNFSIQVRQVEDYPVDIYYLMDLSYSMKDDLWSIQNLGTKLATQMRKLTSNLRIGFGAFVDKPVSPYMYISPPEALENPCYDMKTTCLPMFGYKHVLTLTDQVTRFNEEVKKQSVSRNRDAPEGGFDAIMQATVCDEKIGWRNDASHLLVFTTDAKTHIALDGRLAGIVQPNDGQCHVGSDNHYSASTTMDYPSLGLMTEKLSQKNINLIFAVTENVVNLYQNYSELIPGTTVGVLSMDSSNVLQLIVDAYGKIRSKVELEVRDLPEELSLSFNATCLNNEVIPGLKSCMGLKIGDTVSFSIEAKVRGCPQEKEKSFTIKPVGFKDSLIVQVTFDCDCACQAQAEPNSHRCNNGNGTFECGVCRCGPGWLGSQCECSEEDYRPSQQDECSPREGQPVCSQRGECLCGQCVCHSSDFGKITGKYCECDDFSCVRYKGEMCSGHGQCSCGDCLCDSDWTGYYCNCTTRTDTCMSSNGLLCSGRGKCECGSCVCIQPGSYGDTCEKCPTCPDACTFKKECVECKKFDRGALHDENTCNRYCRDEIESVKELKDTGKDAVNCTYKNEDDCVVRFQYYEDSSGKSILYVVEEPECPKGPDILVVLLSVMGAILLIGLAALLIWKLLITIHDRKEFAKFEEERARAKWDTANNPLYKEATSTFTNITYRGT
Integrin alpha-IIb/beta-3, sequence (P08514 32-887 limits assumed): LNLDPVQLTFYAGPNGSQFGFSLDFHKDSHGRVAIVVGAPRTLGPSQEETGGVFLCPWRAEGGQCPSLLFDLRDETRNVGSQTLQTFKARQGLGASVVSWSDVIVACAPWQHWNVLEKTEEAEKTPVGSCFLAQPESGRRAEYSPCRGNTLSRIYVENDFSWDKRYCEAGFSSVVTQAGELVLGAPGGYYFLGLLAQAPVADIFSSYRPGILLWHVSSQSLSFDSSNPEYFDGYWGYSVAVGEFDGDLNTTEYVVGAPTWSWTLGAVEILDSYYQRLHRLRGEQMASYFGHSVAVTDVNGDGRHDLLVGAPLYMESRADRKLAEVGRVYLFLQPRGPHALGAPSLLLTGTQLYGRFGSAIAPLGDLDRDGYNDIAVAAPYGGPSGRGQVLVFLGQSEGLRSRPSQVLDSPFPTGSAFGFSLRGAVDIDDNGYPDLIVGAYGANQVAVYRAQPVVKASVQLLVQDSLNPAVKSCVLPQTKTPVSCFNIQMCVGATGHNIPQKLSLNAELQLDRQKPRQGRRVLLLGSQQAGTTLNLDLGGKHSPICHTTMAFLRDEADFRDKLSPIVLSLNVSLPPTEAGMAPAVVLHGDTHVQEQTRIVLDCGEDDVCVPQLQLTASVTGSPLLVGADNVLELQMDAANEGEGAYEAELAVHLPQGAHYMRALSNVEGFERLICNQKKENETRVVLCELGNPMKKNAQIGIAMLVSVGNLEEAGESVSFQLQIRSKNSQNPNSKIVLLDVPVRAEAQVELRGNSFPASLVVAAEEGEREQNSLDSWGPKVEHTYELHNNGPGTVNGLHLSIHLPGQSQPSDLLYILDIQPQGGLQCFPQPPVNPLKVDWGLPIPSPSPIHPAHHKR
Integrin alpha-IIb/beta-3, sequence (P08514 891-1039 limits assumed): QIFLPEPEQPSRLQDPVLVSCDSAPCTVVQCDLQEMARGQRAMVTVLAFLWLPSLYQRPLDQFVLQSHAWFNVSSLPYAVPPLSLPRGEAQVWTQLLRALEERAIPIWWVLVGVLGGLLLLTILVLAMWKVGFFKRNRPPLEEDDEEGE
T1 sequence (P05106 27-788 limits assumed): as the sequence (P05106 27-788 limits assumed) above
T1 sequence (P06756 31-889 limits assumed): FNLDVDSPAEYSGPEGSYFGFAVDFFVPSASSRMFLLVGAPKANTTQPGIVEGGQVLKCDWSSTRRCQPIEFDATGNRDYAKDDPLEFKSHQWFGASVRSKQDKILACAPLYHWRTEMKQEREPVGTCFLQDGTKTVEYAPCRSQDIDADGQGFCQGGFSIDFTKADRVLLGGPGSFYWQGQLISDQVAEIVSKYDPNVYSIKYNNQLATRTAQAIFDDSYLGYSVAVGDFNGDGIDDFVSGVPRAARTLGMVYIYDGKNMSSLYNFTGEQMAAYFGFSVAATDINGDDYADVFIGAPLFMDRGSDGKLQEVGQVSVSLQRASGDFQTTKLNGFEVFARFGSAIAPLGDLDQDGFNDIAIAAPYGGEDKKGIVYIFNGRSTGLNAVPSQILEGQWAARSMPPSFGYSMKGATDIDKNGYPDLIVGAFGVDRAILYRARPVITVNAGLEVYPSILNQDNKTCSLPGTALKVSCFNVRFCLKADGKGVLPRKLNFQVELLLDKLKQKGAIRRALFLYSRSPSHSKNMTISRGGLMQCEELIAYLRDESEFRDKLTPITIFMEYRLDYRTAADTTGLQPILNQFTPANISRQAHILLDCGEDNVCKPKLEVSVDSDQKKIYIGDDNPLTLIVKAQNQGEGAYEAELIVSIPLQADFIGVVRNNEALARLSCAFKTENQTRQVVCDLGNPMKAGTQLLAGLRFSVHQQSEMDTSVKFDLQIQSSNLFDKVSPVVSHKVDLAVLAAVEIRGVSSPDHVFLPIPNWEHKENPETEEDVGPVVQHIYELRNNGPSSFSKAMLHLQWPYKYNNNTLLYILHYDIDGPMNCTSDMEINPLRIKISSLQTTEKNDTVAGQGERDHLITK
T1 sequence (P06756 891-1048 limits assumed): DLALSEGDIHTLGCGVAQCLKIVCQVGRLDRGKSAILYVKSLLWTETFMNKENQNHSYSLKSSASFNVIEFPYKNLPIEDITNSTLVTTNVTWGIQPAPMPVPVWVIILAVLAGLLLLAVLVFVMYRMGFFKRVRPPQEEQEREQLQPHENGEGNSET

Work on `N=C(N)NCc1cccc(-c2ccc(C(=O)NC[C@H](NS(=O)(=O)c3ccccc3)C(=O)O)s2)c1.O=C(O)C(F)(F)F` yielded an IC50 (Integrin alpha-V/beta-3 [1]) of 2.2 nM, a Ratio [2] of under 0.5 and an Inhibition (Gallus gallus [3]) of 57%. For the same compound, the Ratio (Homo sapiens) was 97, the Inhibition (Gallus gallus [4]) was 42% and the IC50 [5] was 0.34 nM. It also gave an Inhibition (Gallus gallus [6]) of 29%, an IC50 (Integrin alpha-V/beta-3 [7]) of 0.74 nM and a Ratio [8] of 864.
With `N=C(N)Nc1ccccc1-c1ccc(C(=O)NC[C@H](NS(=O)(=O)c2ccccc2)C(=O)O)s1` the IC50 (Integrin alpha-V/beta-3 [1]) was 5500 nM, the Ratio [2] was under 0.1 and the IC50 [5] was 0.25 nM. For the same compound, the IC50 (Integrin alpha-V/beta-3 [7]) was 5330 nM.
Compound `Cc1cc(C)c(S(=O)(=O)N[C@@H](CNC(=O)c2ccc(-c3cccc(NC(=N)N)c3)s2)C(=O)O)c(C)c1` has an IC50 (Integrin alpha-V/beta-3 [1]) of 1.4 nM, a Ratio [2] of 300 and a Ratio (Homo sapiens) of 2720. For the same compound, the IC50 (Integrin alpha-V/beta-5) was 2.5 nM, the IC50 [5] was 0.31 nM and the IC50 (Integrin alpha-V/beta-3 [7]) was 0.00092 nM. The IC50 (Integrin alpha-5/beta-1) was 26 nM and the Ratio [8] was 28300.
In the case of `N=C(N)NCc1ccc(-c2ccc(C(=O)NC[C@H](NS(=O)(=O)c3ccccc3)C(=O)O)s2)cc1`, the IC50 (Integrin alpha-V/beta-3 [1]) is reported as 2.1 nM, the Ratio [2] is reported as under 0.1 and the IC50 [5] is reported as 6.1 nM. It also gave an IC50 (Integrin alpha-V/beta-3 [7]) of 730 nM.
`N=C(N)Nc1cccc(-c2ccc(C(=O)NC[C@H](NS(=O)(=O)c3ccccc3)C(=O)O)s2)c1.O=C(O)C(F)(F)F` gave an IC50 (Integrin alpha-V/beta-3 [1]) of 1 nM, a Ratio [2] of 3 and an Inhibition (Gallus gallus [3]) of 98%. For the same compound, the Ratio (Homo sapiens) was 33, the Inhibition (Gallus gallus [4]) was 66% and the IC50 [5] was 0.59 nM. It also gave an Inhibition (Gallus gallus [6]) of 29%, an IC50 (Integrin alpha-V/beta-3 [7]) of 0.19 nM and an IC50 (Integrin alpha-5/beta-1) of 95 nM. It also gave a Ratio [8] of 500.
`N=C(N)NCc1ccccc1-c1ccc(C(=O)NC[C@H](NS(=O)(=O)c2ccccc2)C(=O)O)s1` was tested, and the IC50 (Integrin alpha-V/beta-3 [1]) was 0.04 nM, the Ratio [2] was under 0.1 and the IC50 [5] was 0.0058 nM. It also gave an IC50 (Integrin alpha-V/beta-3 [7]) of 21 nM.
With `N=C(N)Nc1ccc(-c2ccc(C(=O)NC[C@H](NS(=O)(=O)c3ccccc3)C(=O)O)s2)cc1` the IC50 (Integrin alpha-V/beta-3 [1]) was 71.5 nM, the Ratio [2] was under 0.1 and the IC50 [5] was 0.0013 nM. For the same compound, the IC50 (Integrin alpha-V/beta-3 [7]) was 3790 nM.
`Cc1cc(C)c(S(=O)(=O)N[C@@H](CNC(=O)c2ccc(-c3cccc(CN=C(N)N)c3)s2)C(=O)O)c(C)c1.O=C(O)C(F)(F)F` showed an IC50 (Integrin alpha-V/beta-3 [1]) of 3.4 nM, a Ratio [2] of under 0.1 and an Inhibition (Gallus gallus [3]) of 95%. It also gave a Ratio (Homo sapiens) of 1, an Inhibition (Gallus gallus [4]) of 91% and an IC50 [5] of 0.16 nM. The Inhibition (Gallus gallus [6]) was 65%, the IC50 (Integrin alpha-V/beta-3 [7]) was 11 nM and the Ratio [8] was 6.
